Measurements as given in patent US20190292167A1, “HETEROAROMATIC COMPOUNDS USEFUL FOR THE TREATMENT OF PROLIFERATIVE DISEASES” (Syros Pharmaceuticals, Inc., priority 2013, published 2019).
Counter-ions that a name gives are not always drawn. Like-named read-outs stand apart in the source and are kept apart here.

Experiments:
MCF-7 = assay: Inhibition of cell proliferation, CellTiter-Glo, 72 hour; format: cell-based; details: Homo sapiens, MCF7, Breast Cancer/Breast cell line
MV4-11 = assay: as above; format: cell-based; details: Homo sapiens, Blood cancer cell line
Hs822T = assay: as above; format: cell-based; details: Ewing's Sarcoma cell line
Protocol: (§1) • Hs863T—DMEM (4 mM L-Glut, 4.5 g/L Glucose, 1 mM pyruvate, 1.5 g/l bicarb)+10% FBS • Hs822T—DMEM (4 mM L-Glut, 4.5 g/L Glucose, 1 mM pyruvate, 1.5 g/l bicarb)+10% FBS • A673—DMEM (4 mM L-Glut, 4.5 g/L Glucose, 1 mM pyruvate, 1.5 g/l bicarb)+10% FBS • SKES-1—McCoy's 5a Medium Modified (modified—1.5 mM L-glut, 2.2 g/L bicarb)+15% FBS • RD-ES—RPMI 1640+15% FBS.

Hs863T = assay: as above; format: cell-based; details: Ewing's Sarcoma cell line
Protocol: as §1

A673 = assay: as above; format: cell-based; details: Homo sapiens, Ewing's Sarcoma cell line
Protocol: as §1

SKES-1 = assay: as above; format: cell-based; details: Homo sapiens, SK-ES1, Ewing's Sarcoma cell line, read-out: Inhibition of Proliferation SK-ES
Protocol: as §1

RD-ES = assay: as above; format: cell-based; details: Ewing's Sarcoma cell line
Protocol: as §1

SKBR-3 = assay: as above; format: cell-based; details: Homo sapiens, SK-BR-3, Breast Cancer/Breast cell line, read-out: Inhibition of Proliferation SKBR3
143B = assay: as above; format: cell-based; details: Homo sapiens, Osteosarcoma cell line
RS4-11 = assay: as above; format: cell-based; details: Homo sapiens, Blood cancer cell line
MNNG-Hos Cl#5 = assay: as above; format: cell-based; details: Osteosarcoma cell line
hTERT-HME1 = assay: as above; format: cell-based; details: Breast Cancer/Breast cell line
MDA-MB231 = assay: as above; format: cell-based; details: Homo sapiens, MDA-MB-231, Breast Cancer/Breast cell line
HL-60 = assay: as above; format: cell-based; details: Homo sapiens, Blood cancer cell line, read-out: Inhibition of Proliferation HL60
SAOS = assay: as above; format: cell-based; details: Osteosarcoma cell line
Jurkat = assay: as above; format: cell-based; details: Blood cancer cell line, 72 hour, read-out: Inhibition of Proliferation of Jurkat Cells
Protocol: The following cancer cell lines were tested with the media conditions indicated: […]

THP-1 = assay: as above; format: cell-based; details: Homo sapiens, Blood cancer cell line
CDK7 = molecular target: T1, CDK7 (Homo sapiens, UniProt P50613); assay: Adapta kinase assay (Life Technologies) against CDK7, co-factors cyclin H and MNAT1; format: biochemical; details: read-out: CDK7 Inhibition
T1 construct: purchased Life Technologies (Adapta kinase assay service)

T47D = assay: Inhibition of cell proliferation, CellTiter-Glo, 72 hour; format: cell-based; details: Homo sapiens, Breast Cancer/Breast cell line
MCF-10A = assay: as above; format: cell-based; details: Homo sapiens, Breast Cancer/Breast cell line, read-out: Inhibition of Proliferation MCF10A

T1 sequence (P50613 whole entry): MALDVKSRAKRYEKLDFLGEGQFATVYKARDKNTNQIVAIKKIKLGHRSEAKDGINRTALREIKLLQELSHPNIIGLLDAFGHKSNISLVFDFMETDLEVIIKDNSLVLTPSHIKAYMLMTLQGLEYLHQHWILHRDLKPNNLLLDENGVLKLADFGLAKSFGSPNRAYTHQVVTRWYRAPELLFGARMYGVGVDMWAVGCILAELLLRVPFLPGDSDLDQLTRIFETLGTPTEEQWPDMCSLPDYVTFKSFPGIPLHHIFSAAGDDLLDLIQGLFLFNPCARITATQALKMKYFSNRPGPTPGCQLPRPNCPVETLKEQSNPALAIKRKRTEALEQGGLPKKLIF
T1 sequence (P51946 whole entry partner): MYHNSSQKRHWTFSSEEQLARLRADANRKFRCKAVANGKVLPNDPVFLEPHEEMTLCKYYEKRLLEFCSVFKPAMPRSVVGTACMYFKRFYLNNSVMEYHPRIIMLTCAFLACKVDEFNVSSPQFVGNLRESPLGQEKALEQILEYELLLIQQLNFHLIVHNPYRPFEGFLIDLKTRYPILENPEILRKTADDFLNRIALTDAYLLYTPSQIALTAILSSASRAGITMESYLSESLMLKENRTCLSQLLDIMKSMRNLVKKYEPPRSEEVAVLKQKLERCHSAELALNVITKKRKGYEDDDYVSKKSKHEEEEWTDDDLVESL
T1 sequence (P51948 whole entry partner): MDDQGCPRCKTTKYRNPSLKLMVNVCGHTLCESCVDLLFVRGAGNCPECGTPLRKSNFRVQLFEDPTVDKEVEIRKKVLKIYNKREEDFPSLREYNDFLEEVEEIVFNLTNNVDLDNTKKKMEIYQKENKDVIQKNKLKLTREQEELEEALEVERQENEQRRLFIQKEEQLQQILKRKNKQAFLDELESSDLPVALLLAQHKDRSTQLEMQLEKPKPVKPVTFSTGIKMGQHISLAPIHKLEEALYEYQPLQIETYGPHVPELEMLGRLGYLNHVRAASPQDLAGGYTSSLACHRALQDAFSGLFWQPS

Structure (SMILES) | IC50 (MCF-7) [nM] | IC50 (MV4-11) [nM] | IC50 (SKES-1) [nM] | IC50 (SKBR-3) [nM] | IC50 (RS4-11) [nM] | IC50 (MDA-MB231) [nM] | IC50 (HL-60) [nM] | IC50 (Jurkat; Homo sapiens, Jurkat, 72 h) [nM] | IC50 (THP-1) [nM] | IC50 (CDK7) [nM] | IC50 (T47D) [nM] | IC50 (Hs822T) [nM] | IC50 (Hs863T) [nM] | IC50 (A673) [nM] | IC50 (RD-ES) [nM] | IC50 (143B) [nM] | IC50 (MNNG-Hos Cl#5) [nM] | IC50 (hTERT-HME1) [nM] | IC50 (SAOS) [nM] | IC50 (MCF-10A) [nM] | further results
CN1CC[C@H](c2c(O)cc(O)c3c(=O)cc(-c4ccccc4Cl)oc23)[C@H](O)C1 [Flavopiridol, flavopiridol, reference compound] | 500 to 5000 | < 500 | < 500 | < 500 | < 500 | < 500 | < 500 | – | < 500 | – | > 5000 | > 5000 | > 5000 | < 500 | < 500 | 500 to 5000 | 500 to 5000 | < 500 | < 500 | < 500 | –
CC(C)[C@]12O[C@H]1[C@@H]1O[C@]13[C@]1(O[C@H]1C[C@H]1C4=C(CC[C@@]13C)C(=O)OC4)[C@@H]2O [Triptolide, triptolide, reference compound] | < 500 | < 500 | < 500 | < 500 | < 500 | < 500 | < 500 | – | < 500 | – | > 5000 | 500 to 5000 | > 5000 | < 500 | < 500 | < 500 | < 500 | < 500 | < 500 | < 500 | –
C=CC(=O)Nc1ccc(CNC(=O)[C@H]2C[C@H](Nc3ncc(Cl)c(-c4c[nH]c5ccccc45)n3)CN(C)C2)cc1 (relative stereo) [Compound 155, (+/−trans)-N-(4-acrylamidobenzyl)-5-((5-chloro-4-(1H-indol-3-yl)pyrimidin-2-yl)amino)-1-methylpiperidine-3-carboxamide] | – | – | – | – | – | – | – | – | – | 100 to 1000 | – | – | – | – | – | – | – | – | – | – | IC50 (Jurkat): 500 to 5000 nM
C=CC(=O)Nc1ccc(CNC(=O)C2CC(Nc3ncc(Cl)c(-c4c[nH]c5ccccc45)n3)CN(C)C2)cc1 (racemic) [Compound 157, (+/−cis)-N-(4-acrylamidobenzyl)-5-((5-chloro-4-(1H-indol-3-yl)pyrimidin-2-yl)amino)-1-methylpiperidine-3-carboxamide] | – | – | – | – | – | – | – | < 500 | – | < 100 | – | – | – | – | – | – | – | – | – | – | –
O=C(/C=C/CNC(=O)C(F)(F)F)Nc1ccc(CN2CCC(Nc3ncc(Cl)c(-c4c[nH]c5ccccc45)n3)CC2)cc1 [Compound 156, (E)-N-(4-((4-((5-chloro-4-(1H-indol-3-yl)pyrimidin-2-yl)amino)piperidin-1-yl)methyl)phenyl)-4-(2,2,2-trifluoroacetamido)but-2-enamide] | – | – | – | – | – | – | – | 500 to 5000 | – | 100 to 1000 | – | – | – | – | – | – | – | – | – | – | –
N#Cc1cnc(N[C@@H]2CCN(C(=O)c3ccc(NC(=O)/C=C/CN4CCOCC4)cc3)C2)nc1-c1c[nH]c2ccccc12 [Compound 107, (E)-N-(4-((R)-3-(5-cyano-4-(1H-indol-3-yl)pyrimidin-2-ylamino)pyrrolidine-1-carbonyl)phenyl)-4-morpholinobut-2-enamide] | – | – | – | – | – | – | – | < 500 | – | < 100 | – | – | – | – | – | – | – | – | – | – | –

Second part, led by results:

IC50 (MCF-7) [nM] | IC50 (MV4-11) [nM] | IC50 (SKES-1) [nM] | IC50 (SKBR-3) [nM] | IC50 (RS4-11) [nM] | IC50 (MDA-MB231) [nM] | IC50 (HL-60) [nM] | IC50 (Jurkat; Homo sapiens, Jurkat, 72 h) [nM] | IC50 (THP-1) [nM] | IC50 (CDK7) [nM] | IC50 (T47D) [nM] | Structure (SMILES) | IC50 (Hs822T) [nM] | IC50 (Hs863T) [nM] | IC50 (A673) [nM] | IC50 (RD-ES) [nM] | IC50 (143B) [nM] | IC50 (MNNG-Hos Cl#5) [nM] | IC50 (hTERT-HME1) [nM] | IC50 (SAOS) [nM] | IC50 (MCF-10A) [nM] | further results
> 5000 | < 500 | < 500 | > 5000 | < 500 | < 500 | < 500 | < 500 | < 500 | < 100 | > 5000 | CN(C)C/C=C/C(=O)Nc1ccc(C(=O)N2CC[C@@H](Nc3ncc(C#N)c(-c4c[nH]c5ccccc45)n3)C2)cc1 [Compound 103, (E)-N-(4-((R)-3-(5-cyano-4-(1H-indol-3-yl)pyrimidin-2-ylamino)pyrrolidine-1-carbonyl)phenyl)-4-(dimethylamino)but-2-enamide] | > 5000 | > 5000 | < 500 | < 500 | > 5000 | 500 to 5000 | < 500 | < 500 | < 500 | –
500 to 5000 | < 500 | < 500 | > 5000 | < 500 | < 500 | < 500 | < 500 | < 500 | < 100 | > 5000 | CN(C)C/C=C/C(=O)Nc1ccc(C(=O)N2CC[C@@H](Nc3ncc(Cl)c(-c4c[nH]c5ccccc45)n3)C2)cc1 [Compound 104, (E)-N-(4-((R)-3-(5-chloro-4-(1H-indol-3-yl)pyrimidin-2-ylamino)pyrrolidine-1-carbonyl)phenyl)-4-(dimethylamino)but-2-enamide.TFA] | 500 to 5000 | > 5000 | < 500 | < 500 | > 5000 | > 5000 | < 500 | < 500 | < 500 | –
< 500 | < 500 | < 500 | > 5000 | < 500 | < 500 | < 500 | < 500 | < 500 | < 100 | > 5000 | CN(C)C/C=C/C(=O)Nc1ccc(C(=O)N2CCC(Nc3ncc(Cl)c(-c4c[nH]c5ccccc45)n3)CC2)cc1 [Compound 100, (E)-N-(4-(4-(5-chloro-4-(1H-indol-3-yl)pyrimidin-2-ylamino)piperidine-1-carbonyl)phenyl)-4-(dimethylamino)but-2-enamide] | 500 to 5000 | > 5000 | < 500 | < 500 | > 5000 | 500 to 5000 | < 500 | < 500 | < 500 | –
< 500 | < 500 | < 500 | > 5000 | < 500 | < 500 | < 500 | < 500 | < 500 | < 100 | > 5000 | CN(C)C/C=C/C(=O)Nc1ccc(C(=O)N2CCC(Nc3ncc(C#N)c(-c4c[nH]c5ccccc45)n3)CC2)cc1 [Compound 102, (E)-N-(4-(4-(5-cyano-4-(1H-indol-3-yl)pyrimidin-2-ylamino)piperidine-1-carbonyl)phenyl)-4-(dimethylamino)but-2-enamide] | 500 to 5000 | > 5000 | < 500 | < 500 | > 5000 | > 5000 | < 500 | < 500 | < 500 | –
> 5000 | < 500 | 500 to 5000 | > 5000 | 500 to 5000 | > 5000 | > 5000 | 500 to 5000 | > 5000 | 100 to 1000 | > 5000 | CN(C)C/C=C/C(=O)Nc1ccc(C(=O)N2CC[C@H](Nc3ncc(Cl)c(-c4c[nH]c5ccccc45)n3)C2)cc1 [Compound 101, (E)-N-(4-((S)-3-(5-chloro-4-(1H-indol-3-yl)pyrimidin-2-ylamino)pyrrolidine-1-carbonyl)phenyl)-4-(dimethylamino)but-2-enamide] | > 5000 | > 5000 | 500 to 5000 | > 5000 | > 5000 | > 5000 | 500 to 5000 | > 5000 | 500 to 5000 | –
